Like-named read-outs stand apart in the source and are kept apart here.
Assays:
human ALR2 = target: T1, human ALR2 (Homo sapiens, UniProt P15121); assay: ALR2 inhibition (in vitro reduction of D,L-glyceraldehyde); type: biochemical
T1 construct: purchased WAKO Pure Chemical Industries, Ltd. (Japan); host or cells: baculovirus-insect cell expression system
Method: Human ALR2 was purchased from WAKO Pure Chemical Industries, Ltd. (Japan), which was purified from the culture medium of baculovirus-insect cell expression system. […] ALR2 inhibition was determined spectrophotometrically according to the procedure described previously.

[1] = ORACFL radical absorbance capacity assay
Description: With the CHCA scaffold, we hypothesized that 5a–j should have antioxidant activity. Therefore, a radical absorbance capacity assay (ORACFL)[41] was employed to assess their capacities. This method is based on the inhibition of peroxyl-radical-induced oxidation initiated by thermal decomposition of azo-compounds, in this case 2,2′-azo-bis (2-amidinopropane) dihydrochloride (AAPH). Trolox (6-hydroxy-2,5,7,8-tetramethylchroman-2-carboxylic acid) was used as a standard reference. Data is expressed as micromoles of Trolox equivalents (TE) per […] of sample (μmol TE/ml or U/ml).
Antioxidant capacity was determined according to the procedure described previously.

chick embryo = assay: Chick embryo model of hyperglycemia: mortality, NTD rate, body weight; type: in vivo; settings: glucose 0.4 mmol/egg
Method: In order to evaluate further the potential of 5f as an agent to treat diseases caused by high glucose inside the system, a chick embryo model of treatment with high glucose was set up.
Fertilized leghorn eggs were purchased from the Avian Farm of the South China Agriculture University (Guangzhou, China). Before the injection of glucose (Sigma–Aldrich, MO, USA), the eggs were incubated in a humidified incubator (Grumbach, Germany) at 37 °C with 60% humidity until the embryos reached the desired stage. […] Glucose was dissolved in 200 μL chicken saline and injected on EDD 1. Mortality, abnormality and body weight measurements were made on EDD 5. Embryos were removed from their eggs and weighed. The percent mortality was measured by counting the number of dead versus all embryos. The rate of NTD of the embryos was assessed by the number of NTD versus survival embryos.

ALR2 = assay: AR (ALR2) activity in glucose-treated embryos (chicken AR ELISA kit); type: in vivo; settings: glucose-treated chick embryos, EDD 5, edaravone group (0.1 nM)
Method: As expected, treatment of 5f decreased ALR2 activity in a dose-dependent manner. […] However, EDA, which is a clinical radical scavenger, was shown no effect on the inhibition of ALR2.
Embryos on EDD 5 were homogenized with chicken saline and centrifuged (4 °C, 10000 rpm, 10 min). The supernatant was used for measuring AR activity in the sample. A chicken AR ELISA kit (Jianglai Biotechnology, China) were used for detection. The concentration of AR in the samples was then determined by comparing the OD of the samples to the standard curve. The sorbitol contents of the chick embryo were determined by a Sorbitol Colorimetric Assay Kit (BioVision, USA). In the assay, sorbitol is oxidized to fructose with the proportional development of intense color with an absorbance maximum at 560 nm.

[2] = tested on: oxidative stress (ROS, MDA, ORAC); assay: ROS generation, MDA and ORAC level in chick embryos; type: in vivo; settings: glucose-treated chick embryos; for ORAC level (anti-oxidative capacity) of embryo: EDD 5
Description: It has been reported that hyperglycemia increased the production of ROS. Blocking the generation of ROS could at least partially prevent the possible damage of hyperglycemia. No doubt, oxidative stress will be induced in glucose treated embryos. This conclusion was confirmed by the determination of ROS and malondialdehyde (MDA) levels, and the anti-oxidation ability in chick embryos on EDD 5. […] However, treatment of 5f decreased both levels of ROS and MDA in a dose-dependent manner.
In addition, the ORAC level is indicative of the anti-oxidative capacity.
ROS generation ratios in the eyes of EDD 5 chick embryos were detected with 5 μmol 2′,7′-dichlorofluorescein-diacetate (DCFH-DA, Sigma-Aldrich). The peroxide content was determined by measuring thiobarbituric-acid-reactive substances (TBARS) with a commercial MDA kit (Nanjing Jiancheng Institute of Biotechnology, Nanjing, China). The procedures for the ORAC assay were modified from the previously described method. The automated ORAC assay was carried out on a decay of the fluorescein signal and determined with an excitation/emission filter pair of 485/527 nm in a GENios Lueifcrase microplate reader (TECAN) at 37 °C. Final results were calculated on the basis of the difference in the area under the fluorescein decay curve between the blank and each sample.

HEK293 cells = assay: Cytotoxicity, MTT growth inhibition; type: cell-based, human; settings: 500 μM
Method: In another aspect, the toxicity was evaluated by the growth inhibition of 5f against human embryonic kidney 293 (HEK293) cells. It was shown that 5f was nontoxic to HEK293 cells even at high concentration of 500 μM (Supplementary B of Fig. S2).
HEK293 cells were purchased from Centre of Cells Resource, Shanghai Institute of Life Science, Chinese Academy of Sciences, P. R. China. HEK293 cells in the exponential phase were plated on a 96-well cell culture plate with 5 × 10^3 cells in each well supplemented with 100 U/ml of penicillin and 100 μg/ml of streptomycin, which were cultured in a humidified atmosphere of 95% and 5% CO2 at 37 °C for 24 h. The cells were adherent. […] 6 wells were set for each group. The wells without addition of the drug were set as controls. The cells in each of the wells were cultured for another 24 h. Then 15 μl of MTT (5 mg/mL) was added to each well. The plates were then incubated at 37 °C for 4 hours, then the supernatants were discarded. 150 μL of DMSO solutions were added to each of the wells and the solutions were mixed thoroughly. Then the plates were incubated at 37 °C for another 10 minutes. Each sample was mixed again and the resulting formazan was measured by its absorbance at 570 nm using a BIO-RAD680 plate reader (Thermo, USA). The experiments were repeated at least 3 times and compared with the control experiment. […]

ALR1 = target: T2, ALR1 (Gallus gallus, UniProt Q5ZK84); assay: ALR1 activity in glucose-treated embryos (chicken ALR1 ELISA kit); type: in vivo; settings: glucose-treated chick embryos, EDD 5, compared with the model group
T2 construct: Embryos on EDD 5 were homogenized with chicken saline and centrifuged; from tissue; host or cells: EDD 5 chick (leghorn) embryo homogenate supernatant
T2 sequence (Q5ZK84 1-327): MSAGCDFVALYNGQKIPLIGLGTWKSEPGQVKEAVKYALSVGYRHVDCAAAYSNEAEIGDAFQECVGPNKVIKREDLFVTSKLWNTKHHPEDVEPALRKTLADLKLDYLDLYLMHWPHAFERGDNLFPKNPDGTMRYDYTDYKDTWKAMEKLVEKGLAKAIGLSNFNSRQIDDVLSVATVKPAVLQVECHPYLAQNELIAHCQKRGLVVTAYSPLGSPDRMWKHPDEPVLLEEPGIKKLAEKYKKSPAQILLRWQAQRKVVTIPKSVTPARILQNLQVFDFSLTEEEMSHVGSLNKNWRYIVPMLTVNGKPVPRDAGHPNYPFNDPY
Method: Embryos on EDD 5 were homogenized with chicken saline and centrifuged (4 °C, 10000 rpm, 10 min). The supernatant was used for measuring ALR1 activity in the sample. A chicken ALR1 ELISA kit (Jianglai Biotechnology, China) were used for detection. The concentration of ALR1 in the samples was then determined by comparing the OD of the samples to the standard curve.

[3] = human ALR2, D,L-glyceraldehyde as substrate, read-out: IC50 (ALR2 inhibition)

N#CC(=Cc1ccc(O)cc1)C(=O)O [CHCA, α-cyano-4-hydroxycinnamic acid]
IC50 (human ALR2): 133 ± 1.8 nM
ORAC ([1]; 3.125 μg/ml): 52.3 ± 3.1 U/ml
ORAC ([1]; 6.25 μg/ml): 51.2 ± 1.1 U/ml
ORAC ([1]; 12.5 μg/ml): 48.8 ± 1.3 U/ml

CC(=O)N1CCC[C@H]1C(=O)NCCNC(=O)/C(C#N)=C/c1ccc(O)cc1 [Compound 5a, (S,E) - 1 - acetyl -N-(2-(2-cyano-3-(4-hydroxyphenyl)acrylamido)ethyl)pyrroli-dine-2-carboxamide]
IC50 (human ALR2; [3]): 137 ± 2.9 nM
ORAC ([1]; 3.125 μg/ml): 57.0 ± 2.3 U/ml
ORAC ([1]; 6.25 μg/ml): 52.4 ± 2.1 U/ml
ORAC ([1]; 12.5 μg/ml): 49.8 ± 1.7 U/ml

CC(=O)N1CCC[C@@H]1C(=O)NCCNC(=O)/C(C#N)=C/c1ccc(O)cc1 [Compound 5b, (R,E) -1-acetyl - N - (2-(2-cyano-3-(4-hydroxyphenyl)acrylamido)ethyl)pyrroli-dine-2-carboxamide]
IC50 (human ALR2; [3]): 136 ± 2.4 nM
ORAC ([1]; 3.125 μg/ml): 47.1 ± 2.4 U/ml
ORAC ([1]; 6.25 μg/ml): 44.1 ± 2.5 U/ml
ORAC ([1]; 12.5 μg/ml): 42.9 ± 3.3 U/ml

CC(=O)N[C@@H](COCc1ccccc1)C(=O)NCCNC(=O)/C(C#N)=C/c1ccc(O)cc1 [Compound 5c, (S,E) – N - (2 - (2-acetamido-3-(benzyloxy)propanamido)ethyl)-2-cyano-3-(4-hydroxyphenyl)acrylamide]
IC50 (human ALR2; [3]): 316 ± 6.2 nM
ORAC ([1]; 3.125 μg/ml): 32.4 ± 1.8 U/ml
ORAC ([1]; 6.25 μg/ml): 30.4 ± 1.7 U/ml
ORAC ([1]; 12.5 μg/ml): 26.4 ± 2.9 U/ml
melting point: 176 to 178 °C

CC(=O)N[C@H](COCc1ccccc1)C(=O)NCCNC(=O)/C(C#N)=C/c1ccc(O)cc1 [Compound 5d, (R,E) – N - (2 - (2-acetamido-3-(benzyloxy)propanamido)ethyl)-2-cyano-3-(4-hydroxyphenyl)acrylamide]
IC50 (human ALR2; [3]): 404 ± 7 nM
ORAC ([1]; 3.125 μg/ml): 38.3 ± 1.9 U/ml
ORAC ([1]; 6.25 μg/ml): 35.4 ± 3.2 U/ml
ORAC ([1]; 12.5 μg/ml): 33.3 ± 4.1 U/ml
melting point: 175 to 177 °C

CC(=O)N[C@@H](COCc1ccccc1)C(=O)NCCCNC(=O)/C(C#N)=C/c1ccc(O)cc1 [Compound 5e, (S,E) – N - (3-(2-acetamido-3-(benzyloxy)propanamido)propyl)-2-cyano-3-(4-hydroxyphenyl)acrylamide]
IC50 (human ALR2; [3]): 99.8 ± 2 nM
ORAC ([1]; 3.125 μg/ml): 65.7 ± 2.7 U/ml
ORAC ([1]; 6.25 μg/ml): 62.6 ± 1.5 U/ml
ORAC ([1]; 12.5 μg/ml): 60.4 ± 2.2 U/ml

CC(C)(C)C(=O)N[C@@H](COCc1ccccc1)C(=O)NCCNC(=O)/C(C#N)=C/c1ccc(O)cc1 [Compound 5g, (S,E) - N - (2-(2-pivalamido-3-(benzyloxy)propanamido)ethyl)-2-cyano-3-(4-hydroxyphenyl)acrylamide]
IC50 (human ALR2; [3]): 273 ± 4.6 nM
ORAC ([1]; 3.125 μg/ml): 38.3 ± 2.6 U/ml
ORAC ([1]; 6.25 μg/ml): 33.9 ± 1.4 U/ml
ORAC ([1]; 12.5 μg/ml): 30.4 ± 3.7 U/ml

CC(C)(C)C(=O)N[C@H](COCc1ccccc1)C(=O)NCCNC(=O)/C(C#N)=C/c1ccc(O)cc1 [Compound 5h, (R,E) - N - (2-(2-pivalamido-3-(benzyloxy)propanamido)ethyl)-2-cyano-3-(4-hydroxyphenyl)acrylamide]
IC50 (human ALR2; [3]): 252 ± 4.6 nM
ORAC ([1]; 3.125 μg/ml): 50.3 ± 3.2 U/ml
ORAC ([1]; 6.25 μg/ml): 45.2 ± 1.3 U/ml
ORAC ([1]; 12.5 μg/ml): 42.8 ± 1.1 U/ml

CC(C)(C)C(=O)N[C@@H](COCc1ccccc1)C(=O)NCCCNC(=O)/C(C#N)=C/c1ccc(O)cc1 [Compound 5i, (S,E) - N - (3-(2-pivalamido-3-(benzyloxy)propanamido)propyl)-2-cyano-3-(4-hydroxyphenyl)acrylamide]
IC50 (human ALR2; [3]): 221 ± 3.9 nM
ORAC ([1]; 3.125 μg/ml): 36.4 ± 3.5 U/ml
ORAC ([1]; 6.25 μg/ml): 35.6 ± 3.9 U/ml
ORAC ([1]; 12.5 μg/ml): 35.3 ± 2.1 U/ml

CC(C)(C)C(=O)N[C@H](COCc1ccccc1)C(=O)NCCCNC(=O)/C(C#N)=C/c1ccc(O)cc1 [Compound 5j, (R,E) - N - (3-(2-pivalamido-3-(benzyloxy)propanamido)propyl)-2-cyano-3-(4-hydroxyphenyl)acrylamide]
IC50 (human ALR2; [3]): 247 ± 4.5 nM
ORAC ([1]; 3.125 μg/ml): 38.6 ± 1.9 U/ml
ORAC ([1]; 6.25 μg/ml): 35.3 ± 1.7 U/ml
ORAC ([1]; 12.5 μg/ml): 30.6 ± 2.2 U/ml

CC1=NN(c2ccccc2)C(=O)C1 [Edaravone, reference compound]
Body weight (chick embryo; EDD 5, dose 0.1 nM): 310.8 ± 11.6 mg
Death (/n) (chick embryo; EDD 5, dose 0.1 nM): 20.0%
NTD (/survival) (chick embryo; EDD 5, dose 0.1 nM): 18.8%
ALR2 activity in embryo (ALR2): no effect
ORAC level (anti-oxidative capacity) of embryo [2]: recovered

CC(/C=C1\SC(=S)N(CC(=O)O)C1=O)=C\c1ccccc1 [Epalrestat, epalrestat, reference compound]
inhibition rate (growth inhibition) (HEK293 cells): 36.4%
Body weight (chick embryo; EDD 5, dose 1 μM): 300.1 ± 3.6 mg
Death (/n) (chick embryo; EDD 5, dose 1 μM): 25.0%
NTD (/survival) (chick embryo; EDD 5, dose 1 μM): 26.7%
ALR1 level in embryo (ALR1): no obvious change
ORAC level (anti-oxidative capacity) of embryo [2]: no effect
MDA level in embryo ([2]; EDD 5, dose 1 μM): no effect
ROS level in embryo ([2]; EDD 5, dose 1 μM): no effect

O=c1c2cc(O)c(O)cc2oc2cc(O)c([C@@H]3O[C@H](CO)[C@@H](O)[C@H](O)[C@H]3O)c(O)c12 [Mangiferin, reference compound]
IC50 (human ALR2; [3]): 138 ± 2.2 nM
ORAC ([1]; 3.125 μg/ml): 75.3 ± 0.4 U/ml
ORAC ([1]; 6.25 μg/ml): 74.8 ± 0.8 U/ml
ORAC ([1]; 12.5 μg/ml): 73.2 ± 7.2 U/ml

Cc1c(C)c2c(c(C)c1O)CCC(C)(C(=O)O)O2 (centres unmarked) [Trolox, 6-hydroxy-2,5,7,8-tetramethylchroman-2-carboxylic acid, reference compound]
ORAC ([1]; 3.125 μg/ml): 95.3 ± 3.7 U/ml
ORAC ([1]; 6.25 μg/ml): 92.8 ± 2.7 U/ml
ORAC ([1]; 12.5 μg/ml): 85.2 ± 4.3 U/ml
